For 26 compounds, IC50 and melting point results are on record in patent publication US7008636B2, “2,3,5-substituted biphenyls useful in the treatment of insulin resistance and hyperglycemia” (Wyeth, priority 1998, dated 2006).

As usually defined, the IC50 is the midpoint of a concentration-inhibition curve. As a reminder, the melting point is the temperature, or range, at which the solid turns liquid.

Data set [1] deals with T1, recombinant, human protein tyrosine phosphatase (PTP) 1B (hPTP1B) (Homo sapiens, UniProt P18031).
T1 construct: made in house
T1 sequence (P18031 1-435): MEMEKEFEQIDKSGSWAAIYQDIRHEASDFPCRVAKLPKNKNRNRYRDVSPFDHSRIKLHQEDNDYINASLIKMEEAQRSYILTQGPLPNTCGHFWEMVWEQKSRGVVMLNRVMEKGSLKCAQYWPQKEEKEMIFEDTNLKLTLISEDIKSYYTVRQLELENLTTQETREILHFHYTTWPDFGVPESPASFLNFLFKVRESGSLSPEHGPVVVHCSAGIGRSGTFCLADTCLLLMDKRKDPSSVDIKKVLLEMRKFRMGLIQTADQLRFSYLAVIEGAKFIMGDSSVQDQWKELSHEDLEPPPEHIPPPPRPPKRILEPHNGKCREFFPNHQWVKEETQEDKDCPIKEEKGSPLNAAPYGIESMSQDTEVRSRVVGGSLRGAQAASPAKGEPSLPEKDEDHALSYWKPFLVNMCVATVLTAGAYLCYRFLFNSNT
Put plainly: Inhibition of tri-phosphorylated insulin receptor dodecaphosphopeptide dephosphorylation by hPTP1B. Conditions: 50 μM IR triphosphopeptide substrate, 5 min preincubation and 5 min reaction at 37° C., malachite green-ammonium molybdate phosphate detection. Format: biochemical.

Bounds are passed on as bounds.

On to `COc1cccc(-c2cc(C(=O)NCCCCCCCCc3ccccc3)cc(-c3cccc(OC)c3OCC(=O)O)c2)c1` [Example 17, [3,3″-Dimethoxy-5′-(8-phenyl-octylcarbamoyl)-[1,1′;3′,1″]terphenyl-2-yloxy]-acetic acid], for which the melting point lay within 67.3 to 68.7 °C. For the same compound, the IC50 in data set [1] was 284 nM.
For `O=C(O)COCCOc1c(-c2cccc(C(F)(F)F)c2)cc(C(=O)NCCCCCCc2ccccc2)cc1-c1cccc(C(F)(F)F)c1` [Example 18, {2-[5′-(6-Phenyl-hexylcarbamoyl)-3,3″-bis-trifluoromethyl-[1,1′;3′,1″]terphenyl-2′-yloxy]-ethoxy}acetic acid] the same measures were 74.7 to 75.9 °C and 710 nM.
For `O=C(O)COc1c(-c2cccc(C(F)(F)F)c2)cc(C(=O)NCCCCCCOCc2ccc(F)cc2F)cc1-c1cccc(C(F)(F)F)c1` [Example 19, {5′-[6-(2,4-Difluoro-benzyloxy)-hexylcarbamoyl]-3,3″-bis-trifluoromethyl-[1,1′;3′1″]terphenyl-2′yloxy}-acetic acid] the same measures were 149.9 to 150.6 °C and 728 nM.
The corresponding values for `O=C(O)COc1c(-c2cccc(C(F)(F)F)c2)cc(C(=O)NCCCCCCOCc2ccc(-c3ccccc3)cc2)cc1-c1cccc(C(F)(F)F)c1` [Example 20, {5′-[6-(Biphenyl-4-ylmethoxy)-hexylcarbamoyl]-3,3″-bis-trifluoromethyl-[1,1′;3′,1″]terphenyl-2′-yloxy}-acetic acid] are 133.2 to 133.9 °C and 379 nM.
In turn, `COc1cccc(-c2cccc(-c3cc(OC)cc(C(=O)N(C)CCCCCCCCc4ccccc4)c3)c2OCC(=O)O)c1` [Example 21, {3,3″-Dimethoxy-5″-[methyl-(8-phenyl-octyl)-carbamoyl]-[1,1′;3′,1″]terphenyl-2′-yloxy}-acetic acid] yielded a melting point of 148.9 to 149.7 °C. Moreover, in data set [1], the IC50 worked out at 880 nM.
With `O=C(O)COCCOc1c(-c2cc(Cl)cc(Cl)c2)cc(C(=O)NCCCCCCc2ccccc2)cc1-c1cc(Cl)cc(Cl)c1` [Example 22], the melting point lay within 78.5 to 79.9 °C. In addition, the 50% inhibitory concentration (IC50) in data set [1] was determined as 250 nM.
Take `COc1ccc(-c2cc(C(=O)NCCCCCCCCc3ccccc3)cc(-c3ccc(OC)cc3)c2OCC(=O)[O-])cc1.[Na+]` [Example 23, [4,4″-Dimethoxy-5′-(8-phenyl-octylcarbamoyl)-[1,1′;3′,1″]terphenyl-2′yloxy]acetic acid sodium salt]: the melting point was over 95 °C. The IC50 in data set [1] worked out at 365 nM.
Compound `Cc1cc(COCCCCCCNC(=O)c2cc(-c3ccc(F)c(Cl)c3)c(OCC(=O)O)c(-c3ccc(F)c(Cl)c3)c2)c(C)o1` [Example 26, {3,3″-Dichloro-5′-(6-(2,5-dimethyl-furan-3-ylmethoxy)-hexylcarbamoyl]-4-4″-difluoro-[1,1′;3′,1″]terphenyl-2′-yloxy}-acetic acid] returned a melting point of 90 to 91.2 °C. The IC50 in data set [1] stood at 207 nM.
For `Cc1cc(COCCCCCCNC(=O)c2cc(-c3cccc(C(F)(F)F)c3)c(OCC(=O)O)c(-c3cccc(C(F)(F)F)c3)c2)c(C)o1` [Example 30, {5′-[6-(2,5-Dimethyl-furan-3-ylmethoxy)-hexylcarbamoyl]-3,3″-bis-trifluoromethyl-[1,1′;3′,1″]terphenyl-2′-yloxy}-acetic acid] the same measures were 107.9 to 108.5 °C and 220 nM.
As for `CCCCCCCCCCCCCCCCNc1c(Nc2cc(-c3ccccc3)c(OCC(=O)O)c(-c3ccccc3)c2)c(=O)c1=O` [Example 32, [5′-(2-Hexadecylamino-3,4-dioxo-cyclobut-1-enylamino)-[1,1′;3′,1″]terphenyl-2′-yloxy]-acetic acid], the melting point lay in the range of 132.5 to 133.7 °C. Further, the concentration for half-maximal inhibition (IC50) in data set [1] was found to be 17 nM.
The corresponding values for `CCCCCCCCCCCCCCCCCCOc1cc(-c2ccccc2)c(OCC(=O)O)c(-c2ccccc2)c1` [Example 36, (5′-Octadecyloxy-[1,1′;3′,1″]terphenyl-2′-yloxy)-acetic acid] are 90.5 to 92 °C and 24 nM.
As for `O=C(O)COc1c(-c2ccccc2)cc(-c2c3ccccc3cc3sc4ccccc4c23)cc1-c1ccccc1` [Example 37, (5′-Benzo[b]naphtho[2,3-d]thiophen-11-yl-[1,1′;3′,1″]terphenyl-2′-yloxy)-acetic acid], the melting point is > 136 °C (dec.). Further, the half-inhibitory concentration (IC50) in data set [1] amounted to 118 nM.
The compound `CCCCCCCCOc1cc(-c2cccc(Cl)c2)c(OCC(=O)O)c(-c2cccc(Cl)c2)c1` [Example 46, (3,3″-Dichloro-5′-octyloxy-[1,1′;3′,1″]terphenyl-2′-yloxy)acetic acid] yielded a melting point of 113 to 115.5 °C. For the same compound, the IC50 in data set [1] was 121 nM.
For `CCCCCCCCOc1cc(-c2cccc(NC(C)=O)c2)c(OCC(=O)O)c(-c2cccc(NC(C)=O)c2)c1` [Example 47, (3,3″-Bis-acetylamino-5′-octyloxy-[1,1′;3′,1″]terphenyl-2′-yloxy)acetic acid] the same measures were > 100 °C (dec.) and 300 nM.
The corresponding values for `CCCCCCCCOc1cc(-c2cccc(C(F)(F)F)c2)c(OCC(=O)O)c(-c2cccc(C(F)(F)F)c2)c1` [Example 48, (5′-Octyloxy-3,3″-bis-trifluoromethyl-[1,1′;3′,1″]terphenyl-2′-yloxy)acetic acid] are 75 to 77 °C and 145 nM.
The corresponding values for `CCCCCCCCOc1cc(-c2cccc([N+](=O)[O-])c2)c(OCC(=O)O)c(-c2cccc([N+](=O)[O-])c2)c1` [Example 49, (3,3″-Dinitro-5′-octyloxy-[1,1′;3′,1″]terphenyl-2′-yloxy)acetic acid] are 129 to 132 °C and 400 nM.
Turning to `O=C(O)COc1c(-c2cccc(Cl)c2)cc(C(=O)NCCCCCCc2ccccc2)cc1-c1cccc(Cl)c1` [Example 80, [3,3″-Dichloro-5′-(6-phenyl-hexylcarbamoyl)-[1,1′;3′,1″]terphenyl-2′-yloxy]acetic acid], the melting point was in the range of 178 to 181 °C. Further, the concentration for half-maximal inhibition (IC50) in data set [1] is 600 nM.
Take `COc1ccc(-c2cc(C(=O)N(C)CCCCCCCCc3ccccc3)cc(-c3cccc(C(F)(F)F)c3)c2OCC(=O)O)cc1` [Example 81, {4″-Methoxy-5′-[methyl-(8-phenyl-octyl)-carbamoyl]-3-trifluoromethyl-[1,1′;3′1″]-terphenyl-2′-yloxy}acetic acid]: the melting point was > 39 °C (dec.). Moreover, the IC50 in data set [1] was determined as 330 nM.
The corresponding values for `CN(CCCCCCCCc1ccccc1)C(=O)c1cc(-c2cccc(Cl)c2)c(OCC(=O)O)c(-c2cccc(Cl)c2)c1` [Example 82, {3,3″-Dichloro-5′-[methyl-(8-phenyl-octyl)-carbamoyl]-[1,1′;3′1″]terphenyl-2′-yloxy}acetic acid] are > 44 °C (dec.) and 179 nM.
`O=C(O)COc1c(-c2cccc(F)c2)cc(C(=O)NCCCCCCCCc2ccccc2)cc1-c1cccc(F)c1` [Example 83, [3,3″-Difluoro-5′-(8-phenyl-octylcarbamoyl)-[1,1′;3′,1″]terphenyl-2′-yloxy]acetic acid]: the melting point was > 58 °C (dec.). In addition, the half-maximal inhibitory concentration (IC50) in data set [1] was 536 nM.
The corresponding values for `CN(CCCCCCCCc1ccccc1)C(=O)c1cc(-c2cccc(F)c2)c(OCC(=O)O)c(-c2cccc(F)c2)c1` [Example 84] are > 43 °C (dec.) and 1030 nM.
The corresponding values for `O=C(O)COc1c(-c2cccc(Cl)c2)cc(C(=O)NCCCCCCCCSc2nc3ccccc3o2)cc1-c1cccc(Cl)c1` [Example 87, {5′-[8-(Benzoxazol-2-ylsulfanyl)-octylcarbamoyl]-3,3″-dichloro-[1,1′;3′1″]-terphenyl-2′-yloxy}acetic acid] are > 68 °C (dec.) and 332 nM.
The corresponding values for `O=C(O)COc1c(-c2cccc(Cl)c2)cc(C(=O)NCCCCCCCCn2ccc3ccccc32)cc1-c1cccc(Cl)c1` [Example 88, [3,3″-Dichloro-5′-(8-indol-1-yl-octylcarbamoyl)-[1,1′;3′1″]terphenyl-2′-yloxy]acetic acid] are > 84 °C (dec.) and 137 nM.
On to `N#Cc1cccc(OCCCCCCCCNC(=O)c2cc(-c3cccc(Cl)c3)c(OCC(=O)O)c(-c3cccc(Cl)c3)c2)c1` [Example 89, {3,3″-Dichloro-5′-[8-(3-cyano-phenoxy)-octylcarbamoyl]-[1,1′;3′1″]terphenyl-2′-yloxy}acetic acid], for which the melting point is > 61 °C (dec.). Moreover, the IC50 in data set [1] was 173 nM.
For `O=C(O)COc1c(-c2cccc(Cl)c2)cc(C(=O)NCCCCCCCCOCc2ccc(Cl)cc2)cc1-c1cccc(Cl)c1` [Example 90, {3,3″-Dichloro-5′-[8-(4-chloro-benzyloxy)-octylcarbamoyl]-[1,1′;3′1″]terphenyl-2′-yloxy}acetic acid] the same measures were 128 to 131 °C and 100 nM.
The corresponding values for `Cc1cc(OCCCCCCCCNC(=O)c2cc(-c3cccc(Cl)c3)c(OCC(=O)O)c(-c3cccc(Cl)c3)c2)ccc1F` [Example 91, {3,3″-Dichloro-5′-[8-(4-fluoro-3-methyl-phenoxy)-octylcarbamoyl]-[1,1′;3′1″]terphenyl-2′-yloxy}acetic acid] are 138 to 140 °C and 313 nM.
